Source: ChEMBL document CHEMBL3507680, “University of Dundee, Gates Library screen for HepG2 cell viability”

assay: Human HepG2 cell viability assay in 384 well format; type: toxicity, cell-based; design: dose 125 nL, time 70.5 hour; concentration not given beside the values; details: HepG2 cells, read-out: Inhibition

First: O=C(CC1CC1)NC[C@]12COC[C@H]1CN(c1ncccn1)C2
Second: O=C(NC[C@]12COC[C@H]1CN(CC1CCOCC1)C2)c1ccco1
The cytotoxicity at 70.5 h of the first is lower: -8% for the first, -3.33% for the second.

First: COc1ccccc1C1=NOC(CC2(C(=O)NCCO)CCOCC2)C1 (stereo not drawn)
Second: COc1cccc(CNc2nc(N3CCOCC3)ns2)c1OC
The cytotoxicity at 70.5 h of the first is lower: 0.737% for the first, 15.5% for the second.

Going from CC(C)=CCN1C[C@H]2CC[C@@H]1CN(C(=O)Cn1c(C)cc(C)nc1=O)C2 to CC(C)=CCN1C[C@H]2CC[C@@H]1CN(C(=O)CSc1ccncc1)C2, the cytotoxicity at 70.5 h rises from -4.66% to -0.143%.

Compared with Cc1nnc(CN(C)C2CCCN(Cc3noc(C4CC4)n3)C2)o1 (stereo not drawn), CN(CC1CCOCC1)C1CCCN(c2ccccn2)C1 (stereo not drawn) is higher in cytotoxicity at 70.5 h: -8.76% for the first, -7.08% for the second.

First: O=C(O)c1ccc(S(=O)(=O)Nc2ccc(Cl)c(F)c2)c(F)c1
Second: O=S(=O)(Cc1ccc(F)c(Cl)c1)NC(CO)c1ccco1 (stereo not drawn)
The cytotoxicity at 70.5 h of the first is higher: -5.1% for the first, -11% for the second.

Going from COC(=O)N1CCC(CNC(=O)C2CCN(S(C)(=O)=O)CC2)CC1 to CC(=O)N1CCC(n2nccc2-c2cnc(N3CCCC3)nc2)CC1, the cytotoxicity at 70.5 h rises from -19.3% to -9%.

Compared with COc1cccc(SCCCn2cnc3c(N)ncnc32)c1, COc1cccc(-c2cc(NCc3nc(C)cs3)n(C)n2)c1 is lower in cytotoxicity at 70.5 h: 6.56% for the first, -9.85% for the second.

First: COc1ccc(NC(=O)NC(C)c2nc[nH]n2)cc1Cl (stereo not drawn)
Second: Cn1cc(NC(=O)c2ccccn2)cc(Cl)c1=O
The cytotoxicity at 70.5 h of the first is higher: -2.57% for the first, -7.7% for the second.

First: O=C(NCC1CCOC1)Nc1ccc(OCC(F)(F)F)nc1 (stereo not drawn)
Second: COCCOc1ccc(NC(=O)N2CCCC2c2ccncc2)cn1 (stereo not drawn)
The cytotoxicity at 70.5 h of the first is higher: -10.7% for the first, -11.8% for the second.

First: COCC1CN(CC2CC2)Cc2ncn(CC3CC3)c21 (stereo not drawn)
Second: CN1CCCN(C[C@H]2C[C@H](CO)CN(Cc3cccnc3N)C2)CC1
The cytotoxicity at 70.5 h of the first is lower: 2.41% for the first, 22.4% for the second.

First: CN(CC(F)(F)F)C(=O)Cn1cc(NC(=O)C(C)(C)C)cn1
Second: CNC(=O)NC(=O)CNc1cc(C(=O)OC)cc(C(F)(F)F)c1
The cytotoxicity at 70.5 h of the first is higher: 3.96% for the first, 1.77% for the second.

Going from Cc1cc(F)ccc1CN1CCCC(O)(CN2CCCC2)C1 (stereo not drawn) to CCc1ccc(C(=O)N2CCN(Cc3ccc(F)cc3)CC2)s1, the cytotoxicity at 70.5 h rises from -1.52% to 4.63%.

Going from CN(CCO)c1ncc(-c2ccc(NC(=O)[C@@H]3CCCCN3)cc2)cn1 to Nc1nccnc1C(=O)N1CCN(Cc2cccc3ccccc23)CC1, the cytotoxicity at 70.5 h rises from -1.72% to 28%.

First: CC(C)(C)c1ncc(CNCC2CCCN2c2cccnn2)s1 (stereo not drawn)
Second: Cc1cc(N2CCCC2c2cnccn2)ncn1 (stereo not drawn)
The cytotoxicity at 70.5 h of the first is higher: 5.55% for the first, -5.35% for the second.

Going from CCN(CC)CCNC(=O)CCc1c(C)nn(-c2ccc(Cl)cc2)c1C to CCN(CC)C(=O)c1ccc(-c2ccsc2)nc1C, the cytotoxicity at 70.5 h rises from -7.15% to -6.78%.

Going from COCC(O)CN1CCC(NC(=O)c2cccc(C)c2)CC1 (stereo not drawn) to Cc1nc(-c2cccc(C(=O)O)c2)cc(C2CCN(C(C)C)C2)n1 (stereo not drawn), the cytotoxicity at 70.5 h rises from -2.52% to -2.07%.

First: COCc1cnc2n1CCN(C(=O)c1cn(C)c3ccccc13)C2C (stereo not drawn)
Second: Cc1ncsc1CNC(=O)N1CCN(Cc2ccccc2)C[C@H]1C
The cytotoxicity at 70.5 h of the first is lower: -5.93% for the first, -3.58% for the second.

Going from CCN(C)c1cc(CNC(=O)CNC(=O)CC2CCCCC2)ccn1 to CN(C)c1cc(CNC(=O)c2cn(-c3ccc(F)cc3)nn2)ccn1, the cytotoxicity at 70.5 h rises from -16.4% to -8.15%.

First: Cc1ncc(COc2ccc(N(C)S(C)(=O)=O)cc2)s1
Second: O=C(COc1ccc(C(F)(F)F)cc1)NS(=O)(=O)c1cccnc1
The cytotoxicity at 70.5 h of the first is higher: 3.82% for the first, -3.77% for the second.

Going from O=C(c1cccnc1Oc1ccccc1)N1CCCn2ncnc21 to Cc1ccccc1C(=O)NCCCN1CCc2ccccc2C1, the cytotoxicity at 70.5 h rises from 4.54% to 19.4%.

First: CN(C)C[C@H]1C[C@@H](CO)CN(C(=O)CCc2nc(Cl)n[nH]2)C1
Second: CCc1cnc(CN(C(C)=O)C2CCN(CCS(C)(=O)=O)C2)o1 (stereo not drawn)
The cytotoxicity at 70.5 h of the first is lower: 4.5% for the first, 32.1% for the second.

First: CNC(=O)[C@@H]1[C@@H](c2ccccc2)CN2CCN(Cc3cc(C)no3)C[C@H]12
Second: Cc1ccc(CN[C@@H]2COC[C@H]2Cc2cc(C)no2)cc1
The cytotoxicity at 70.5 h of the first is higher: -4.59% for the first, -7.63% for the second.

First: Cc1csc(N2CCCN(C(=O)c3cnns3)CC2)n1
Second: Cc1cc(C(=O)N2CCN(c3ccncc3Cl)CC2)n(C)n1
The cytotoxicity at 70.5 h of the first is higher: 31.6% for the first, -1.44% for the second.

First: COc1c(CC2CC(C(=O)O)=NO2)c(Br)c2c(c1OC)OCO2 (stereo not drawn)
Second: O=C(CCC1CCCO1)NCc1ccc(Br)cc1F (stereo not drawn)
The cytotoxicity at 70.5 h of the first is lower: -7.83% for the first, 12.7% for the second.

Compared with CCOc1ncccc1CNc1nnc(C)c(C)c1C#N, Cc1ccn(-c2ccccc2NCc2cccnc2C)n1 is lower in cytotoxicity at 70.5 h: -0.879% for the first, -7.82% for the second.

Compared with CC(CN1CCOCC1)n1cncc1-c1ccc2c(c1)CCCN2C (stereo not drawn), Cc1nn(C)c(N2CCOCC2)c1CNC(C)c1ccccn1 (stereo not drawn) is higher in cytotoxicity at 70.5 h: -10.1% for the first, 5.82% for the second.

Going from c1ccc2nc(N3CCOC(Cn4cccn4)C3)cnc2c1 (stereo not drawn) to COCc1cc(N2CCN(c3ccc(Cl)cn3)CC2)n2nccc2n1, the cytotoxicity at 70.5 h rises from -11.7% to -0.783%.

Compared with Cc1cccc(CN2C(=O)CO[C@@H]3CN(CCO)C[C@H]32)c1, Cc1ccc(CN2CC[C@@H]3[C@H]2CCC(=O)N3Cc2ccncc2)s1 is higher in cytotoxicity at 70.5 h: -3.53% for the first, 21% for the second.

Going from CCSc1ncc(CN2CC[C@@](O)(COC)C(C)(C)C2)cn1 to CC(C)N(C)CCNC(=O)N1CCN(Cc2ccon2)CC1, the cytotoxicity at 70.5 h rises from -18.2% to -5.35%.

Going from Cc1cc(C)c(CNC(=O)C2CCCN(c3cnccn3)C2)c(=O)[nH]1 (stereo not drawn) to Cc1cc(C)nc(C2CCN(C(=O)c3cncnc3C)C2)n1 (stereo not drawn), the cytotoxicity at 70.5 h rises from -14.3% to 12.9%.

Compared with C1CCC(CSc2nnnn2C2CC2)OC1 (stereo not drawn), CN(Cc1ccco1)[C@@H]1CN(Cc2cccnc2)[C@@H]2CCCO[C@H]12 is lower in cytotoxicity at 70.5 h: -0.703% for the first, -12.5% for the second.

Going from O=C1NC(c2cnc(C3CCC3)s2)Nc2ncccc21 (stereo not drawn) to Clc1ccccc1CN1CCc2nc(C3CCNCC3)ncc2C1, the cytotoxicity at 70.5 h rises from -26.5% to -6.61%.

First: CCOCCOc1ccccc1C(=O)N1C[C@H](C2CC2)[C@@H](N)C1
Second: COCCN(C)C[C@@H]1CN(Cc2ccnc3ccccc23)C[C@@H]1CO
The cytotoxicity at 70.5 h of the first is higher: 27.2% for the first, -16.1% for the second.

Compared with CCOc1cccc(CN(Cc2cnn(C)c2)CC(C)C)c1O, CN(C)CCN1CCc2ncc(CN(C)Cc3ccco3)n2CC1 is higher in cytotoxicity at 70.5 h: 7.39% for the first, 30% for the second.

First: Cc1cc2nc(SCC(=O)NC(C)C)n(Cc3ccco3)c(O)c-2n1
Second: CCn1ccc(C(=O)N2CCCC2(C)c2nc(C)cc(N(C)C)n2)n1 (stereo not drawn)
The cytotoxicity at 70.5 h of the first is lower: -14.4% for the first, -7.92% for the second.

Going from CN(Cc1ccc(Cl)s1)C(=O)CN1CC(n2cccn2)C1 to Cc1cccc(N2N=C(C(=O)NC(C)Cn3cccn3)CCC2=O)c1 (stereo not drawn), the cytotoxicity at 70.5 h falls from -14.6% to -14.7%.

Compared with CCN(C(=O)COC)C(c1ccc(Cl)cc1)c1ccccn1 (stereo not drawn), CN(Cc1ccccc1)C(=O)CCNc1ncccc1C#N is higher in cytotoxicity at 70.5 h: -21.9% for the first, -4.83% for the second.

Going from COCCNC(=O)CCNc1cc(C)nc(-c2ccncc2)n1 to Cc1nc(C)c(C(=O)NCCNC(=O)Cc2ccccc2)s1, the cytotoxicity at 70.5 h rises from -15.7% to -1.65%.

Compared with CC(C)c1noc(C(C)N2CCN(CCN3CCCC3=O)CC2)n1 (stereo not drawn), Cc1ncsc1C(=O)N1CCN(CCC(C)C)CC1 is higher in cytotoxicity at 70.5 h: -11.8% for the first, -6.29% for the second.

Compared with CN(C)CCNc1cc(-c2ccc[nH]c2=O)c2cc[nH]c2n1, CNC(=O)c1cn2cc(-c3ccccc3Cl)n(CC3CC3)c(=O)c2n1 is higher in cytotoxicity at 70.5 h: -5.94% for the first, 15.9% for the second.

Compared with O=C(NC1CC1)c1cc(C2CC2)nc2onc(C3CCNCC3)c12, COC(=O)c1cc(C2CC2)nc2c(C#N)cnn12 is higher in cytotoxicity at 70.5 h: -4.47% for the first, 25% for the second.

First: O=C(Cc1ccsc1)N1CCn2cc(Cn3cncn3)nc2C1
Second: Cc1noc([C@]23COC[C@H]2CN(C(=O)Cc2ccsc2)C3)n1
The cytotoxicity at 70.5 h of the first is higher: 2.98% for the first, -2.9% for the second.

First: Cc1ccc(NC(=O)N2CCCN(C(N)=O)CC2)s1
Second: COC(=O)C1CCCCN1C(=O)c1ccc(N(C)C)cc1F (stereo not drawn)
The cytotoxicity at 70.5 h of the first is higher: 7.8% for the first, 2.71% for the second.

Going from CCCc1nnc(N(C)CC2CCN(CC(C)C)CC2)o1 to CS(=O)(=O)NC[C@H]1OC[C@@H]2CN(Cc3cccnc3)CC[C@@H]21, the cytotoxicity at 70.5 h rises from -7.76% to -2.64%.

Compared with NC(=O)CSc1ccccc1NCc1nc(C2CC2)no1, CSCc1noc(C2CCC(=O)N(CCc3ccccc3)C2)n1 (stereo not drawn) is lower in cytotoxicity at 70.5 h: 15% for the first, -13.9% for the second.

Going from Cc1nc(CN(CCS(C)(=O)=O)C(C)(C)C)no1 to CCn1nc(C)c(CN(CCOC)C(=O)c2cnc(C)nc2O)c1C, the cytotoxicity at 70.5 h falls from 42.5% to -6.8%.

Going from O=C(c1cccc(C2CCNC2)c1)N1CCC(c2ccncc2)CC1 (stereo not drawn) to O=C(N[C@@H]1CC[C@@H](N2CCCC2)[C@@H]1O)c1cc2ccccc2[nH]1, the cytotoxicity at 70.5 h rises from -18.3% to -5.76%.

Going from Cc1cccn2cc(C[S+]([O-])Cc3noc(C(C)C)n3)nc12 (stereo not drawn) to Cn1cnc2c1CCN(Cc1csc(-c3ccco3)n1)C2, the cytotoxicity at 70.5 h rises from -1.76% to 15.3%.

First: CC(C)(O)CSCCNC(=O)c1cc(F)ccc1F
Second: COCCC(=O)NC(C)(C(N)=O)c1cccc(Cl)c1 (stereo not drawn)
The cytotoxicity at 70.5 h of the first is higher: 12.9% for the first, -3.41% for the second.

Going from Cc1nc(-c2ccc(Cl)s2)sc1C(=O)O to Cc1nn(C)c(Cl)c1C(=O)NCC(c1ccsc1)N(C)C (stereo not drawn), the cytotoxicity at 70.5 h falls from 1.47% to -21.3%.

Compared with CCc1ccc(C(COC)NC(=O)c2ccc(O)nc2)o1 (stereo not drawn), O=C(CCn1c(=O)oc2ccccc21)NCC(O)c1ccccc1 (stereo not drawn) is higher in cytotoxicity at 70.5 h: -6.34% for the first, -3.91% for the second.

Going from Cc1cnn(CC2CCCN2C(=O)c2ccc3[nH]nnc3c2)c1 (stereo not drawn) to Cc1cc(C)n(C(=O)c2cn(C)nc2S(=O)(=O)N2CCSCC2)n1, the cytotoxicity at 70.5 h falls from 17.5% to -7.57%.

Going from Cc1cc(C)c2c(C(=O)N(C)C)cc(-c3cnc(N)nc3)nc2c1 to Cc1ccsc1CNC(=O)Cc1c(C)nc2c(c1C)c(=O)[nH]n2C, the cytotoxicity at 70.5 h falls from -5.25% to -12.2%.

Compared with O=S(=O)(NCc1ccc(S(=O)(=O)N2CCCC2)s1)c1ccc(Cl)cc1, CC(C)CNC(=O)c1cc2c(s1)CCN2S(C)(=O)=O is higher in cytotoxicity at 70.5 h: -12.5% for the first, -10.9% for the second.

First: Cc1ccc2[nH]c(CNC(=O)C3CC4(CCNCC4)CN3C)nc2c1C (stereo not drawn)
Second: O[C@H]1CN(Cc2cc3ccccc3o2)CC[C@@]12CCCO2
The cytotoxicity at 70.5 h of the first is higher: 50.4% for the first, -8.98% for the second.

Going from CN(C)CCN1C2(CCN(Cc3nccs3)C2)c2ccccc2S1(=O)=O (stereo not drawn) to Cc1ccn(-c2ccnc(N3CCSCC3)n2)n1, the cytotoxicity at 70.5 h falls from 24.4% to -0.283%.

Molecule CO[C@H]1CN(C(C)C)C[C@@H]1NC(=O)Nc1ccc(C(F)(F)F)cc1 has a cytotoxicity at 70.5 h of -5.18%.
